Data on 3 molecules can be found in ChEMBL document CHEMBL4118264, “Selective synthesis of 7-O-substituted luteolin derivatives and their melanonenesis and proliferation inhibitory activity in B16 melanoma cells” (2018).

Holding throughout (type): functional
For assay [1], the system named is B16. In words: Antiproliferative activity against mouse B16 cells assessed as cell proliferation level at 50 uM after 72 hrs by MTT assay relative to control.
The test system of assay [2] is B16. Nature of the assay: Antiproliferative activity against mouse B16 cells assessed as cell proliferation level at 25 uM after 72 hrs by MTT assay relative to control. (Tetrazolium assays rely on reduction of a dye to a coloured formazan, in cell work by metabolically active cells.)
Assay [3] has as its system B16. Nature of the assay: Antiproliferative activity against mouse B16 cells assessed as cell proliferation level at 12.5 uM after 72 hrs by MTT assay relative to control.
Assay [4] has as its system B16. Nature of the assay: Antiproliferative activity against mouse B16 cells assessed as cell proliferation level at 6.25 uM after 72 hrs by MTT assay relative to control.
In assay [5] the test system is B16. Nature of the assay: Inhibition of melanogenesis in mouse B16 cells assessed as intracellular melanogenesis activity at 50 uM after 72 hrs relative to control. Also noted: scale not given: the % may be the effect or the level left.
The subject of assay [6] is B16. In words: Inhibition of melanogenesis in mouse B16 cells assessed as intracellular melanogenesis activity at 25 uM after 72 hrs relative to control. Details: scale not given: the % may be the effect or the level left.
For assay [7], the system named is B16. In words: Inhibition of melanogenesis in mouse B16 cells assessed as intracellular melanogenesis activity at 12.5 uM after 72 hrs relative to control. Details: scale not given: the % may be the effect or the level left.
For assay [8], the system named is B16. Nature of the assay: Inhibition of melanogenesis in mouse B16 cells assessed as intracellular melanogenesis activity at 6.25 uM after 72 hrs relative to control. Also noted: scale not given: the % may be the effect or the level left.
Assay [9] has as its system B16. Nature of the assay: Inhibition of melanogenesis in mouse B16 cells assessed as extracellular melanogenesis activity at 50 uM after 72 hrs relative to control. Details: scale not given: the % may be the effect or the level left.
The test system of assay [10] is B16. In words: Inhibition of melanogenesis in mouse B16 cells assessed as extracellular melanogenesis activity at 25 uM after 72 hrs relative to control. Also noted: scale not given: the % may be the effect or the level left.
The subject of assay [11] is B16. Nature of the assay: Inhibition of melanogenesis in mouse B16 cells assessed as extracellular melanogenesis activity at 12.5 uM after 72 hrs relative to control. Also noted: scale not given: the % may be the effect or the level left.
In assay [12] the test system is B16. Nature of the assay: Inhibition of melanogenesis in mouse B16 cells assessed as extracellular melanogenesis activity at 6.25 uM after 72 hrs relative to control. Details: scale not given: the % may be the effect or the level left.
In assay [13] the test system is B16. Nature of the assay: Antiproliferative activity against mouse B16 cells assessed as cell proliferation level at 730 uM after 72 hrs by MTT assay relative to control.
Assay [14] relates to B16. Nature of the assay: Inhibition of melanogenesis in mouse B16 cells assessed as intracellular melanogenesis activity at 730 uM after 72 hrs relative to control. Also noted: scale not given: the % may be the effect or the level left.
For assay [15], the system named is B16. Nature of the assay: Inhibition of melanogenesis in mouse B16 cells assessed as extracellular melanogenesis activity at 730 uM after 72 hrs relative to control. Also noted: scale not given: the % may be the effect or the level left.

Take `O=c1cc(-c2ccc(O)c(O)c2)oc2cc(O)cc(O)c12` [LUTEOLIN]: the Activity in [1] was 34%; in [2] it was 68%; in assay [3], 110%; in assay [4], 106%; in assay [5], 55%; in [6], 66%. The Activity is listed as 118% in assay [7]; 122% in [8]; 16% in [9]; 15% in [10]; 109% in assay [11]; 114% in [12].

With `OC[C@H]1O[C@@H](Oc2ccc(O)cc2)[C@H](O)[C@@H](O)[C@@H]1O` [ARBUTIN], the Activity in assay [13] turned out to be 105%; in assay [14], 89%; in assay [15], 45%.

Take `COc1cc(O)c2c(=O)cc(-c3ccc(O)c(O)c3)oc2c1`: the Activity in [1] was 41%; in assay [2] it was 55%; in assay [3], 85%; in assay [4] it was 98%; in [5], 50%; in assay [6] it was 50%. In addition, the Activity in [7] came out at 87%; in assay [8] it was 108%; in assay [9] it was 16%; in assay [10] it was 14%; in assay [11] it was 51%; in assay [12] it was 107%.
